The results in this text go back to ChEMBL document CHEMBL3875162, “Synthesis and biological evaluation of new benzimidazole-thiazolidinedione hybrids as potential cytotoxic and apoptosis inducing agents” (Eur J Med Chem, 2016).

Structures are written as SMILES.

Data set [1] can be described thus: Cytotoxicity against human PC3 cells assessed as cell growth inhibition after 48 hrs by MTT assay. In kind it is functional, cell-based. As to conditions: PC-3, 48 h. On the technique in general: Tetrazolium assays rely on reduction of a dye to a coloured formazan, in cell work by metabolically active cells.
A short description of data set [2]: Cytotoxicity against human DU145 cells assessed as cell growth inhibition after 48 hrs by MTT assay. In kind it is functional, cell-based. The conditions noted are these: DU-145, 48 h.
Data set [3] is described as follows: Cytotoxicity against human MDA-MB-231 cells assessed as cell growth inhibition after 48 hrs by MTT assay. The data set is classed as functional, cell-based. As to conditions: MDA-MB-231, 48 h.
The nature of data set [4]: Cytotoxicity against human A549 cells assessed as cell growth inhibition after 48 hrs by MTT assay. In kind it is functional, cell-based. The conditions noted are these: A549, 48 h.
Data set [5] can be described thus: Cytotoxicity against human MCF10A cells assessed as cell growth inhibition after 48 hrs by MTT assay. The data set is classed as toxicity, cell-based, MCF-10A.
Data set [6] concerns A549. Nature of the data set: Selectivity index, ratio of IC50 for human MCF10A cells to IC50 for human A549 cells. The data set is classed as functional.

By IC50 is commonly meant the point on the concentration scale where inhibition reaches its midpoint. In the case of `CC(C)n1c(/C=C2\SC(=O)N(CC(=O)N3CCCC3)C2=O)nc2ccccc21`, the IC50 in data set [1], in data set [2], in data set [3] and in data set [4] was over 50 µM each time.
As to `CCn1c(/C=C2\SC(=O)N(CC(=O)Nc3nc(-c4ccccc4)cs3)C2=O)nc2ccccc21`, the IC50 in data set [1], in data set [2], in data set [3] and in data set [4] was over 50 µM each time.
For the compound `Cn1c(/C=C2\SC(=O)N(CC(=O)Nc3cc(C(C)(C)C)on3)C2=O)nc2ccccc21`, the IC50 in data set [1] is over 50 µM; in data set [2], 31.4 µM; in data set [3], 33.8 µM; in data set [4], 15.3 µM. For the same compound, in data set [5], the IC50 at 48 h turned out to be 38.7 µM. Also, in data set [6], the “Ratio IC50” value is listed as 2.5.
On to `CCn1c(/C=C2\SC(=O)N(CC(=O)Nc3cc(C(C)(C)C)on3)C2=O)nc2ccccc21`, for which the IC50 in data set [1] is over 50 µM; in data set [2] it was over 50 µM; in data set [3] it was over 50 µM; in data set [4], 44.8 µM.
Regarding `CC1CN(C(=O)CN2C(=O)S/C(=C\c3nc4ccccc4n3C(C)C)C2=O)CC(C)O1` (centres undefined), the half-inhibitory concentration (IC50) in data set [1], in data set [2], in data set [3] and in data set [4] was over 50 µM in each case.
Consider `CCn1c(/C=C2\SC(=O)N(CC(=O)N3CCCCC3)C2=O)nc2ccccc21`, for which the 50% inhibitory concentration (IC50) in data set [1], in data set [2], in data set [3] and in data set [4] was over 50 µM throughout.
Consider `CCn1c(/C=C2\SC(=O)N(CC(=O)N3CCc4cc(OC)c(OC)cc4C3)C2=O)nc2ccccc21`, for which the IC50 was 33.5 µM in data set [1], over 50 µM in data set [2], over 50 µM in data set [3] and 26.2 µM in data set [4].
Take `CC(C)n1c(/C=C2\SC(=O)N(CC(=O)Nc3cc(C(C)(C)C)on3)C2=O)nc2ccccc21`: the 50% inhibitory concentration (IC50) in data set [1], in data set [2], in data set [3] and in data set [4] was over 50 µM throughout.
`COc1cc2c(cc1OC)CN(C(=O)CN1C(=O)S/C(=C\c3nc4ccccc4n3C(C)C)C1=O)CC2`: the IC50 in data set [1] is over 50 µM; in data set [2], 29.7 µM; in data set [3], 30.6 µM; in data set [4], 20.6 µM. For the same compound, the 50% inhibitory concentration (IC50) at 48 h in data set [5] is over 100 µM.
The matching figures for `COc1cc2c(cc1OC)CN(C(=O)CN1C(=O)S/C(=C\c3nc4ccccc4n3C)C1=O)CC2`: 41.1 µM, 37.5 µM, 36 µM, 13.3 µM and over 100 µM.
`Cn1c(/C=C2\SC(=O)N(CC(=O)N3CCOCC3)C2=O)nc2ccccc21`: the IC50 in data set [1] is over 50 µM; in data set [2], 41.1 µM; in data set [3], over 50 µM; in data set [4], 38.5 µM.
For the compound `O=c1[nH]cc(F)c(=O)[nH]1` [FLUOROURACIL], the IC50 in data set [1] stood at 45.3 µM; in data set [2] it was 40.6 µM; in data set [3], 36 µM; in data set [4], 30.5 µM.
Take `CC1CN(C(=O)CN2C(=O)S/C(=C\c3nc4ccccc4n3C)C2=O)CC(C)O1` (centres undefined): the IC50 was over 50 µM in data set [1], over 50 µM in data set [2], over 50 µM in data set [3] and 29.4 µM in data set [4].
As to `CCn1c(/C=C2\SC(=O)N(CC(=O)N3CCOCC3)C2=O)nc2ccccc21`, the half-inhibitory concentration (IC50) in data set [1], in data set [2], in data set [3] and in data set [4] was over 50 µM throughout.
As to `Cn1c(/C=C2\SC(=O)N(CC(=O)N3CCCCC3)C2=O)nc2ccccc21`, the IC50 in data set [1], in data set [2], in data set [3] and in data set [4] was over 50 µM each time.
On to `CCn1c(/C=C2\SC(=O)N(CC(=O)N3CCCC3)C2=O)nc2ccccc21`, for which the IC50 in data set [1] is over 50 µM; in data set [2], 45.1 µM; in data set [3], over 50 µM; in data set [4], 31.2 µM.
`CC(C)n1c(/C=C2\SC(=O)N(CC(=O)N3CCOCC3)C2=O)nc2ccccc21`: the IC50 in data set [1], in data set [2], in data set [3] and in data set [4] was over 50 µM throughout.
For `CC(C)n1c(/C=C2\SC(=O)N(CC(=O)N3CCCCC3)C2=O)nc2ccccc21`, the IC50 is over 50 µM in data set [1], 42.2 µM in data set [2], over 50 µM in data set [3] and 28.2 µM in data set [4].
`Cn1c(/C=C2\SC(=O)N(CC(=O)N3CCCC3)C2=O)nc2ccccc21`: the concentration for half-maximal inhibition (IC50) in data set [1], in data set [2], in data set [3] and in data set [4] was over 50 µM in each case.
For the compound `CCn1c(/C=C2\SC(=O)N(CC(=O)N3CC(C)OC(C)C3)C2=O)nc2ccccc21` (centres undefined), the half-inhibitory concentration (IC50) in data set [1], in data set [2], in data set [3] and in data set [4] was over 50 µM each time.
